Data published in patent publication US11592451B2, “Method for the preselection of drugs for protein misfolding diseases” (betaSENSE GmbH, priority 2016, dated 2023).
Entries after “also recorded” stand apart in the source; their conditions may differ.

Columns and labels:
[1] = tested on: Tau protein; test: ATR-FTIR sensor drug-screening assay: Tau protein captured from human CSF on antibody Tau-5 terminated germanium, amide I band monitored; type: biochemical; conditions: Tau extracted from CSF; methylene blue 50 μM, berberine 100 μM
Source text: The present invention is based on the detection of secondary structural changes induced by the potential drug by means of vibrational spectroscopy. […] Instead of a 70V (Bruker) we employed an 80V FTIR spectrometer (Bruker) to improve the signal to noise ratio of the measurements. As internal reflection element germanium crystal were chemically modified with NHS-silanes, which function as anchors for the covalent attachment of the desired antibodies. After blocking the surface with casein the surface is ready for capturing of the target protein (Tau or Aβ1-42). The Tau protein was directly extracted out of human CSF. […] The target protein was analyzed in the presence of the potential drug and the effect was monitored by the change in the amide I band. […]
IR-measurements were performed on a Vertex 80V spectrometer (Bruker Optics GmbH, Ettlingen, Germany) with liquid nitrogen cooled mercury-cadmium-telluride (MCT) detector. Double-sided interferograms were recorded in forward-backward interferometer movement at a 80 kHz data rate with a spectral resolution of 2 cm^−1, Blackman-Harris-3-Term-apodisation, Mertz-phase correction and 4 times zero filling. Reference spectra were recorded as an average of 1000, sample spectra of 200 interferograms. […]

[2] = target: T1, Aβ1-42 (Homo sapiens, UniProt P05067); test: ATR-FTIR sensor drug-screening assay: synthetic Aβ1-42 captured on antibody A8978 terminated germanium, auto-induced fibrilization monitored by amide I band; type: biochemical
T1 construct: Amyloid-beta-Protein fragment 1-42; purchased Sigma-Aldrich A9810; host or cells: synthetic peptide
Source text: The present invention is based on the detection of secondary structural changes induced by the potential drug by means of vibrational spectroscopy. […] Instead of a 70V (Bruker) we employed an 80V FTIR spectrometer (Bruker) to improve the signal to noise ratio of the measurements. As internal reflection element germanium crystal were chemically modified with NHS-silanes, which function as anchors for the covalent attachment of the desired antibodies. After blocking the surface with casein the surface is ready for capturing of the target protein (Tau or Aβ1-42). […] The target protein was analyzed in the presence of the potential drug and the effect was monitored by the change in the amide I band. […] Another example is the study of the second important biomarker Aβ1-42. Since the developed sensor is universal, the antibody A8978 against the epitope 13-28 of Aβ1-42 could be applied for the analysis of the potential drug berberine. To monitor a potential effect of berberine the surface was loaded with synthetic Aβ1-42.
The human Aβ-peptide was purchased from Sigma-Aldrich (A9810, Amyloid-beta-Protein fragment 1-42).
IR-measurements were performed on a Vertex 80V spectrometer (Bruker Optics GmbH, Ettlingen, Germany) with liquid nitrogen cooled mercury-cadmium-telluride (MCT) detector. Double-sided interferograms were recorded in forward-backward interferometer movement at a 80 kHz data rate with a spectral resolution of 2 cm^−1, Blackman-Harris-3-Term-apodisation, Mertz-phase correction and 4 times zero filling. Reference spectra were recorded as an average of 1000, sample spectra of 200 interferograms. Recording reference single channel spectra of the blank sensor, sensor with 2-propanol, the silanized surface, the buffers, antibody or casein coated surface in equilibrium states enabled high sensitivity difference spectroscopy based on Lambert-Beer law (E=−log(I/I0). The absorbance of the state change is the negative decadic logarithm of the intensity relation before and after the change.
The antibody A8979 (Sigma-aldrich) was employed for capturing the Aβ-peptide (Nabers et al., Anal. Chem. 88(5):2755-62 doi:10.1021/acs.analchem.5b04286 (2016)). The Aβ-peptide (Aβ1-42, synthetic, Sigma-aldrich, Taufkrichen, Germany) was monomerized by incubation with hexafluoro-2-propanol as described elsewhere (Nabers et al., J. Biophotonics 9(3):224-34 doi:10.1002/jbio.201400145 (2016)).

[3] = tested on: memory function; conditions: rat models; cited from earlier work

T1 sequence (P05067 672-713 limits assumed): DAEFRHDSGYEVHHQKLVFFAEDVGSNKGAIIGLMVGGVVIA

With COc1ccc2cc3[n+](cc2c1OC)CCc1cc2c(cc1-3)OCO2 [berberine, berberine chloride] the “effect on secondary structure distribution of Tau protein” value [1] was “did not change the secondary structure distribution; also recorded: no significant effect on the Tau protein”, the “shoulder of amide I band (β-sheet enriched isoforms) of Aβ1-42 in presence of drug” value ([2]; 100 μM berberine) was 1634 cm⁻¹ and the “shift of the amide I maximum of Aβ1-42 versus no drug” value ([2]; 100 μM berberine, 18 h) was 25 cm⁻¹. The “amide I maximum of Aβ1-42 in presence of drug” value ([2]; 100 μM berberine, 18 h total, without drug 1634 cm^−1) was 1659 cm⁻¹, the “effect on secondary structure distribution / fibrilization of Aβ1-42” value ([2]; synthetic Aβ1-42, drug 100 μM, same conditions for both drugs) was “shifts the distribution mainly to α-helix; also recorded: directly decelerates the aggregation process of Aβ1-42; also recorded: decelerates the auto-induced fibrilization of Aβ1-42” and the “effect on memory function” value [3] was “positive effect on the memory function”.
